Experimental data published in EP3427727A1, “COMBINATION OF BIOLOGICALLY ACTIVE SUBSTANCES FOR STABILIZING OR INCREASING THE COLLAGEN CONTENT” (BioActive Food GmbH, priority 2017, dated 2019).

Tested on: Kollagen-Synthese
Test: Cellular test of collagen synthesis (method of Suh et al.; Biocolor collagen assay, detects collagen types I-IV)
Format: cell-based
Excerpt: In einem zellulären Test wurde die Wirkung von Vitamin K1 und Lutein auf die Kollagen-Synthese untersucht. Die Untersuchung erfolgte nach dem in Suh et al. (Biol Pharm Bull. 2009 Apr; 32(4):746-9) beschriebenen Verfahren. Das gebildete Kollagen wurde mit Hilfe eines Standardassays (Firma Biocolor Ltd., Carrickfergus, Großbritannien) bestimmt. Der Assay war in der Lage, Kollagen des Typs I-IV zu erfassen.

`CC1=C[C@H](O)CC(C)(C)[C@H]1/C=C/C(C)=C/C=C/C(C)=C/C=C/C=C(C)/C=C/C=C(C)/C=C/C1=C(C)C[C@@H](O)CC1(C)C` [Lutein, (3R,6'R)-β-ε-Carotin-3,3'-diol] was tested, and the activity at 2 µM (Lutein 2 µM, Kontrolle = 100 %, read-out: Kollagen (relativ)) was 105% and the activation at 2 µM (Lutein 2 µM, increase over control, read-out: Erhöhung (Kollagen)) was 5%.
In the case of `CC1=C(C/C=C(\C)CCC[C@H](C)CCC[C@H](C)CCCC(C)C)C(=O)c2ccccc2C1=O` [Vitamin K, Vitamin K1], the activity at 0.5 µM (Vitamin K 0,5 µM, Kontrolle = 100 %, read-out: Kollagen (relativ)) is reported as 116% and the activation at 0.5 µM (Vitamin K 0,5 µM, increase over control, read-out: Erhöhung (Kollagen)) is reported as 16%.
